Assays:
[1] = Tissue concentration of etodolac by administration route (oral vs transdermal), leg muscle of rat; format: in vivo; details: 12 mg/kg etodolac suspended in CMC, FIG. 8
Method: In the case of oral administration, four male SD rats (5 weeks old) are used as a group and 12 mg/kg of etodolac suspended in CMC is forced to be taken in by using a probe. The dose is fixed around about 1.1˜1.5 mg/rat. After a lapse of a certain period of time since the forced feeding, an animal is killed by blood removal under anesthesia. Later the leg was amputated, divided into skin and other tissues and the drug concentrations in the muscle tissue and plasma were assayed.
The applied area of the sample was adjusted so that transdermally available amount of etodolac was about 0.7 mg/rat when applied for 24 hours. After a lapse of a certain period of time since the application of the sample, an animal is killed by blood removal under anesthesia. Later the leg was amputated, divided into skin and other tissues and the drug concentrations in the muscle tissue and plasma were assayed.

Q: With CCc1cccc2c3c([nH]c12)C(CC)(CC(=O)O)OCC3 (stereo not drawn) [etodolac] as the compound, how does the “drug-concentration in the muscle tissue” value [1] read?
A: not increased so much

Q: What about the pKa (physchem) of the same compound?
A: 4.65

Q: For CC(O)CN(CC(C)O)CC(C)O (stereo not drawn) [triisopropanolamine], which pKa (physchem) is on record?
A: 8.03

— US8697096B2, “Tape preparation comprising etodolac in ionic liquid form” (priority 2007, dated 2014)
